The values that follow come from paper PMC10722499, “Consumption of Roasted Coffee Leads to Conjugated Metabolites of Atractyligenin in Human Plasma” (Journal of Agricultural and Food Chemistry, 2023).

Like-named read-outs stand apart in the source and are kept apart here.

Series [1] in a line: Human coffee intervention study: plasma concentrations after roasted coffee brew by UPLC-MS/MS. Type of series: in vivo. The conditions noted are these: for Cmax / time of estimated cmax: human plasma after coffee brew (200 mL); for Cmax: n = 10, mean ± SD, read-out: estimated cmax in plasma; for time of estimated cmax: sampling only at 0, 1, 4, 10 h. On the procedure:
The study included ten volunteers (5 females, 5 males) (age: 28.3 ± 2.3 years; BMI: 21.89 ± 2.22 kg/m^2). The intervention study took place from November 5, 2021, to February 17, 2022, in the core facility human studies of the ZIEL Institute for Food and Health of the Technical University of Munich. The study was performed in agreement with the Declaration of Helsinki, and all participants gave written informed consent. The study was approved by the Ethics Committee of the Technical University of Munich (5798/13 S-SR) and registered in the German Register of Clinical Studies (DRKS00005083).
The study participants underwent a dietary protocol that excluded all forms of coffee consumption. Additionally, chocolate, black/green/white, mate tea, cola, energy drinks, and beauty products containing caffeine (e.g., shampoos, creams) were prohibited 1 week before the test day. Furthermore, the study participants received a standardized meal the evening before the test day. The meal was composed of pasta, margarine, and salt, and the amount of energy was calculated based on the participant’s basal energy demand. On the morning of the test day, the participants were in a fastened state and received water (control samples) or coffee brew (coffee intervention) as breakfast. Blood was sampled before coffee intake (0 h) and at defined time points (1, 4, and 10 h) after coffee intake. 6 h after the coffee intake, the participants received lunch, the same standardized meal as the previous dinner. The administered coffee was prepared from a coffee capsule (Nespresso, ROMA) with 100 mL water. The administered volume of the coffee brew was 200 mL. Based on the coffee powder per capsule ([…]), the concentrations of 2 (2.8 μmol/g) and 3 (1.1 μmol/g), respectively,[10] and an estimated extraction rate of 100%, the total ingested amounts were 33.6 μmol (2) and 13.2 μmol (3).
In an Eppendorf tube (1.5 mL), aliquots (50 μL each) of the calibration standard, sample, or QC, respectively, were mixed with the IS solution (1000 nM in ethanol, 50 μL) and acetonitrile/ethanol (9 + 1, v + v, 50 μL) was added. After vortexing, suspensions were cleared by centrifugation (12,000 rpm, 4 °C, 10 min), and the supernatant (∼100 μL) was transferred to an HPLC vial with 200 μL insert for analysis (5 μL injection).
The UPLC–MS/MS system consisted of a Shimadzu Nexera X2 UPLC system (Shimadzu, Duisburg, Germany) hyphenated to a QTrap 5500 MS/MS system (Sciex, Darmstadt, Germany) operating in negative electrospray (ESI^–) mode with the following ion source parameters: ion spray voltage: −4500 V; source temperature: 500 °C; nebulizer gas: 55 psi; heater gas: 65 psi; and curtain gas: 35 psi. The MS/MS parameters, including the collision cell entrance potential (CEP), declustering potential (DP), collision energy (CE), and cell exit potential (CXP), were tuned for each compound and mass transition and are summarized in Supporting Table S3. The dwell time for each compound was 30 ms, and the total cycle time was 0.75 s. Chromatographic separation was achieved on a C18 column (Kinetex C18, 100 mm × 2.1 mm, 1.7 μm, Phenomenex, Aschaffenburg, Germany) at a flow rate of 500 μL/min flow rate. Eluent A was 0.1% formic acid in water, and eluent B was 0.1% formic acid in acetonitrile. B was kept at 3% (1 min), increased to 25% (in 3 min), 90% (in 2 min, 1 min isocratic), and 3% (0.5 min, 2.5 min isocratic). The total time of the analysis was 10 min. The column effluent was introduced from the waste to the MS/MS system between 3 and 7 min.
We applied this method to human plasma samples from a coffee intervention study to investigate the appearance of coffee compounds 1–3 and metabolites M1–M3. Ten participants underwent a washout period (7 days) and then consumed one dose of […]. Blood samples were taken at baseline (0 h) and 1, 4, and 10 h after the intervention. […]

Details of series [2]: method as in PMID 36442242. The following applies: coffee drinkers' urine, four of six samples, qualitative; cited from earlier work.
The mark [3] stands for this setting: both sexes, human, plasma, oral, 200 mL, 1 h after coffee brew (200 mL), human plasma, values above LLOQ, read-out: plasma concentration, mean ± SD.
[4] abbreviates: both sexes, human, plasma, oral, 200 mL, 10 h after coffee brew (200 mL), human plasma, values above LLOQ, read-out: plasma concentration, mean ± SD.
Where [5] appears, read: human, plasma, oral, 200 mL, participant ayia, 1 h after coffee, read-out: plasma concentration, individual.
The mark [6] stands for this setting: human, plasma, oral, 200 mL, participant ayia, 10 h after coffee, read-out: plasma concentration, individual.
[7] abbreviates: human, plasma, oral, 200 mL, participant cbdu, 1 h after coffee, b = below LLOQ, read-out: plasma concentration, individual.
Where [8] appears, read: human, plasma, oral, 200 mL, participant cbdu, 10 h after coffee, read-out: plasma concentration, individual.
Setting [9] is: human, plasma, oral, 200 mL, participant eogo, 10 h after coffee, b = below LLOQ, read-out: plasma concentration, individual.
The mark [10] stands for this setting: human, plasma, oral, 200 mL, participant ggot, 1 h after coffee, read-out: plasma concentration, individual.
The mark [11] stands for this setting: human, plasma, oral, 200 mL, participant ggot, 10 h after coffee, b = below LLOQ, read-out: plasma concentration, individual.
[12] abbreviates: human, plasma, oral, 200 mL, participant imhz, 10 h after coffee, read-out: plasma concentration, individual.
The mark [13] stands for this setting: human, plasma, oral, 200 mL, participant mgjj, 10 h after coffee, read-out: plasma concentration, individual.
The mark [14] stands for this setting: human, plasma, oral, 200 mL, participant wbqj, 1 h after coffee, b = below LLOQ, read-out: plasma concentration, individual.
Setting [15] is: human, plasma, oral, 200 mL, participant wbqj, 10 h after coffee, b = below LLOQ, read-out: plasma concentration, individual.
Setting [16] is: human, plasma, oral, 200 mL, participant wbvs, 10 h after coffee, read-out: plasma concentration, individual.

As for `CC1C(=O)C23CCC4C(C(=O)OC5OC(C(=O)O)C(O)C(O)C5O)CC(O)CC4(C)C2CCC1C3` [M2, 2β-hydroxy-15-oxoatractylan-4α-carboxy-19-O-β-D-glucuronide], the “plasma level at baseline” value in series [1] (0 h, before coffee intake, human plasma) was “below the LLOQ”. Also, in series [1] (1 h after coffee brew (200 mL), human plasma, values above LLOQ), the “plasma concentration, mean ± SD” value was 0.6 ± 0.1 nM. Besides, in series [1] (10 h after coffee, n = 10), the “samples above the LLOQ” value was 80%. Also, the concentration at 1 h stood at 0.63 ± 0.14 nM in series [1] (setting [3]); 0.5 nM in series [1] (setting [5]); 0.1 nM in series [1] (setting [7]); 0.7 nM in series [1] (setting [10]); 0.01 nM in series [1] (setting [14]). In addition, the concentration at 10 h in series [1] (setting [4]) was 2.5 ± 1.9 nM; in series [1] (setting [6]) it was 5.6 nM; in series [1] (setting [8]) it was 0.9 nM; in series [1] (setting [9]), 3.1 nM; in series [1] (setting [11]) it was 0.6 nM; in series [1] (setting [12]), 1.1 nM. Besides, the concentration at 10 h came out at 0.8 nM in series [1] (setting [13]), 2.8 nM in series [1] (setting [15]) and 5.1 nM in series [1] (setting [16]). Moreover, the peak concentration (Cmax) in series [1] (both sexes, oral) was 2.5 ± 1.9 nM. Further, the “time of estimated cmax” value in series [1] is 10 h. Further, in series [1] (human plasma, n = 10), the “study participants in whom the conjugate appeared within 10 h after coffee” value is on record as 80%. In addition, the concentration at 4 h in series [1] (human, plasma, oral, 200 mL, participant ayia, 4 h after coffee, b = below LLOQ, read-out: plasma concentration, individual) came to 0.1 nM. For the same compound, the concentration at 0 h in series [1] (human, plasma, oral, 200 mL, participant rrmk, 0 h, b = below LLOQ, read-out: plasma concentration, individual) turned out to be 0.1 nM. In addition, the “urine samples in which detected” value in series [2] is reported as 67%.

Take `C=C1[C@@H]2CC[C@@H]3[C@@](CCC4[C@H](C(=O)O)C[C@@H](O)C[C@]43C)(C2)[C@@H]1O` (stereo partly drawn) [compound 1, atractyligenin]: the concentration at 1 h in series [1] (setting [3]) came to 41.9 ± 12.5 nM; in series [1] (setting [5]), 36.5 nM; in series [1] (setting [7]) it was 31.6 nM; in series [1] (human, plasma, oral, 200 mL, participant eogo, 1 h after coffee, b = below LLOQ, read-out: plasma concentration, individual), 43.4 nM; in series [1] (setting [10]) it was 49.2 nM; in series [1] (human, plasma, oral, 200 mL, participant imhz, 1 h after coffee, read-out: plasma concentration, individual), 70.5 nM. Further, the concentration at 1 h in series [1] (human, plasma, oral, 200 mL, participant mgjj, 1 h after coffee, read-out: plasma concentration, individual) worked out at 34.7 nM; in series [1] (human, plasma, oral, 200 mL, participant rrmk, 1 h after coffee, read-out: plasma concentration, individual), 42.7 nM; in series [1] (setting [14]) it was 49.1 nM; in series [1] (human, plasma, oral, 200 mL, participant wbvs, 1 h after coffee, read-out: plasma concentration, individual) it was 36.1 nM; in series [1] (human, plasma, oral, 200 mL, participant xrwz, 1 h after coffee, read-out: plasma concentration, individual) it was 26 nM. Further, the concentration at 4 h came out at 40.1 ± 22.9 nM in series [1] (both sexes, human, plasma, oral, 200 mL, 4 h after coffee brew (200 mL), human plasma, values above LLOQ, read-out: plasma concentration, mean ± SD); 13.8 nM in series [1] (human, plasma, oral, 200 mL, participant ggot, 4 h after coffee, b = below LLOQ, read-out: plasma concentration, individual); 19.6 nM in series [1] (human, plasma, oral, 200 mL, participant imhz, 4 h after coffee, read-out: plasma concentration, individual); 17.7 nM in series [1] (human, plasma, oral, 200 mL, participant mgjj, 4 h after coffee, read-out: plasma concentration, individual); 68.1 nM in series [1] (human, plasma, oral, 200 mL, participant rrmk, 4 h after coffee, b = below LLOQ, read-out: plasma concentration, individual); 59.7 nM in series [1] (human, plasma, oral, 200 mL, participant wbqj, 4 h after coffee, b = below LLOQ, read-out: plasma concentration, individual). For the same compound, the concentration at 4 h in series [1] (human, plasma, oral, 200 mL, participant wbvs, 4 h after coffee, read-out: plasma concentration, individual) amounted to 35.2 nM. In addition, the concentration at 10 h in series [1] (setting [4]) was determined as 23.3 ± 10.5 nM; in series [1] (setting [6]), 25.6 nM; in series [1] (setting [8]), 19 nM; in series [1] (setting [9]) it was 8 nM; in series [1] (setting [11]), 2.3 nM; in series [1] (setting [12]), 43.7 nM. The concentration at 10 h came to 16.5 nM in series [1] (setting [13]); 17.9 nM in series [1] (human, plasma, oral, 200 mL, participant rrmk, 10 h after coffee, read-out: plasma concentration, individual); 4.7 nM in series [1] (setting [15]); 17 nM in series [1] (setting [16]); 10.4 nM in series [1] (human, plasma, oral, 200 mL, participant xrwz, 10 h after coffee, b = below LLOQ, read-out: plasma concentration, individual). In addition, the Cmax in series [1] (both sexes, oral) was 41.9 ± 12.5 nM. For the same compound, the “drop of plasma concentration until 10 h” value in series [1] (from the level between 1 and 4 h to 10 h after coffee) is around 45%. The “time of estimated cmax” value in series [1] is recorded as 1 h. The “participants in whom plasma concentration increased between 4 and 10 h” value in series [1] (individual plots, after first maximum at 1 h) is listed as 60%.

In the case of `CC1C(=O)C23CCC4C(C(=O)O)CC(O)CC4(C)C2CCC1C3` (stereo not drawn) [compound 5, 2β-hydroxy-15-oxoatractylan-4α-carboxylic acid], the “appearance in plasma after coffee” value in series [1] (all samples 1, 4, 10 h after coffee brew (200 mL), human plasma) is reported as “did not appear in the plasma”.

A word on the Cmax: it is the maximum level reached in the sampled fluid or tissue.
